From ChEMBL document CHEMBL1201862, “PubChem BioAssay data set” (2004)
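Each compound was tested at five concentrations against cells in 96-well plates for 48 hours. The concentration for 50% growth inhibition is given as GI50.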 The source made the active and inactive calls. Cut-off read from the data, not from the text of the source: active = GI50 up to about 1.1 µM and inactive = higher.

Columns and labels:
Assay in all cases: NCI anticancer screen, dose series, 48 h
KM-20L2 = test system: KM-20L2
M19-MEL = test system: M19-MEL
SNB-78 = test system: SNB-78
LXFL 529 = test system: LXFL 529
DLD-1 = test system: DLD-1
HOP-18 = test system: HOP-18
RXF 631 = test system: RXF 631
DMS-114 = test system: DMS-114
XF498 = test system: XF498

Measured: GI50

CC1=C(C(=O)Nc2ccc([N+](=O)[O-])cc2)C(c2ccc(N(C)C)cc2)C(C(=O)Nc2ccc([N+](=O)[O-])cc2)=C(C)N1
inactive: KM-20L2 11.4 µM | M19-MEL 15.6 µM | SNB-78 29.2 µM | LXFL 529 16.8 µM | DLD-1 11.9 µM

COC(=O)c1ccc(Cc2ccc(C(=O)OC)o2)o1
inactive: KM-20L2 > 378 µM | M19-MEL > 378 µM | HOP-18 38.5 µM | LXFL 529 > 378 µM | DLD-1 > 378 µM | RXF 631 > 378 µM

Clc1ccc(CN2COc3c(cc(Cl)c4cccnc34)C2)cc1
active: XF498 0.973 µM
inactive: KM-20L2 14.3 µM | M19-MEL 2.28 µM | SNB-78 4.79 µM | HOP-18 3.96 µM | DMS-114 1.84 µM | LXFL 529 1.36 µM | DLD-1 2.52 µM | RXF 631 10.3 µM

c1ccc(-c2[nH]c(-c3ccccc3)c(-c3cnccn3)c2-c2cnccn2)cc1
inactive: KM-20L2 > 100 µM | M19-MEL > 100 µM | SNB-78 > 100 µM | HOP-18 > 100 µM | DMS-114 > 100 µM | XF498 95.7 µM | DLD-1 > 100 µM

CC1=C(C(=O)Nc2cccc(C(F)(F)F)c2)C(c2ccccc2F)C(C(=O)Nc2cccc(C(F)(F)F)c2)=C(C)N1
inactive: KM-20L2 4.51 µM | M19-MEL 7.45 µM | SNB-78 13.9 µM | DMS-114 3.33 µM | XF498 2.09 µM | LXFL 529 5.57 µM | DLD-1 6.21 µM | RXF 631 10 µM

Nc1nc2c(nnn2C2C=C(CO)C(O)C2O)c(=O)[nH]1 (stereo unspecified)
inactive: KM-20L2 > 100 µM | M19-MEL > 100 µM | SNB-78 95.3 µM | HOP-18 > 100 µM | DMS-114 > 100 µM | XF498 > 100 µM | LXFL 529 > 100 µM | DLD-1 > 100 µM

CO/C=C/c1cc2c(cc1C(OC)OC)OCO2
inactive: KM-20L2 35.2 µM | M19-MEL 76.4 µM | SNB-78 > 100 µM | DMS-114 32.9 µM | XF498 33.4 µM | DLD-1 36.1 µM | RXF 631 43.7 µM

COC(=O)C1=C(c2cc(OC)c(OC)c(OC)c2)OC(c2cc(OC)c(OC)c(OC)c2)C1COC(C)=O (stereo unspecified)
inactive: KM-20L2 71.6 µM | M19-MEL 32.1 µM | SNB-78 45.7 µM | DMS-114 34.7 µM | XF498 32.4 µM | LXFL 529 34.4 µM | DLD-1 26.2 µM | RXF 631 17.4 µM

N#CC(NNC(=O)Cc1ccccc1)c1cccc(O)c1 (stereo unspecified)
inactive: M19-MEL > 100 µM | SNB-78 > 100 µM | HOP-18 > 100 µM | DMS-114 > 100 µM | LXFL 529 > 100 µM | DLD-1 > 100 µM

CCc1cccc(CC)c1NC(=O)/C(Cl)=C(/Cl)C(=O)O
inactive: KM-20L2 43.8 µM | M19-MEL 31.6 µM | SNB-78 37.7 µM | HOP-18 24.3 µM | DMS-114 23.2 µM | XF498 22.6 µM | LXFL 529 13.6 µM | DLD-1 22.8 µM

CC1=NN(C(=O)Cc2ccccc2)C(=O)/C1=C\c1ccc(O)cc1
inactive: KM-20L2 > 100 µM | M19-MEL > 100 µM | SNB-78 36.8 µM | DMS-114 > 100 µM | XF498 > 100 µM | LXFL 529 > 100 µM | DLD-1 > 100 µM

Cc1ccc(Nc2ccc(Nc3ccc(C)cc3)c3c2C(=O)c2c(O)ccc(O)c2C3=O)cc1
inactive: M19-MEL > 100 µM | SNB-78 68.1 µM | DMS-114 > 100 µM | XF498 > 100 µM | LXFL 529 75.2 µM | DLD-1 > 100 µM

CC(C)(Oc1ccc2c(=O)cc(-c3ccccc3)oc2c1)C(=O)Nc1c(Cl)cccc1Cl
inactive: KM-20L2 > 100 µM | M19-MEL 68.2 µM | SNB-78 > 100 µM | HOP-18 > 100 µM | DMS-114 19.7 µM | XF498 14.3 µM | LXFL 529 81.7 µM

O=C(O)CCSC(=S)Nc1ccc([N+](=O)[O-])cc1
inactive: KM-20L2 > 100 µM | SNB-78 > 100 µM | DMS-114 37.7 µM | LXFL 529 46.6 µM

O=C(O)CN(c1ccc(Cl)cc1)S(=O)(=O)c1ccccc1
inactive: KM-20L2 > 100 µM | M19-MEL > 100 µM | HOP-18 > 100 µM | XF498 > 100 µM | LXFL 529 > 100 µM | DLD-1 > 100 µM | RXF 631 > 100 µM

CN1CC(=O)N(C)c2ncn(Cc3ccccc3)c2C1=O
inactive: M19-MEL > 100 µM | SNB-78 > 100 µM | HOP-18 > 100 µM | DMS-114 > 100 µM | XF498 17 µM | LXFL 529 > 100 µM | DLD-1 > 100 µM | RXF 631 4.68 µM
